In PubChem BioAssay AID248 (DTP/NCI, 2004):
“And” between values parts separate entries of the source, which are not always exact repeats. Identical values can stand only once. Toxic doses and inconclusive results are not listed. No stated cut-off is given here; in the data, active means T/C of 150% or more; inactive means T/C below 125%.

Tested on: L1210 leukemia ip in BDF1 mice, survival T/C
Experiment: NCI In Vivo Anticancer Drug Screen. Data for tumor model L1210 Leukemia (intraperitoneal) in B6D2F1 (BDF1) mice
Details: endpoint: mean survival time, higher = longer survival
Outline: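 Tumor cells were implanted, animals were treated, and survival was followed. The result divides the treated measurement by the vehicle-control measurement.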

[1] = dose: 100.0 mg/kg/injection, schedule: Q04DX002 (ip), vehicle: saline with Tween-80
[2] = dose: 200.0 mg/kg/injection, schedule: Q04DX002 (ip), vehicle: saline with Tween-80
[3] = dose: 100.0 mg/kg/injection, schedule: Q01DX009 (ip), vehicle: saline with Tween-80
[4] = dose: 50.0 mg/kg/injection, schedule: Q01DX009 (ip), vehicle: saline with Tween-80
[5] = dose: 100.0 mg/kg/injection, schedule: Q04DX003 (ip), vehicle: saline with Tween-80
[6] = dose: 200.0 mg/kg/injection, schedule: Q04DX003 (ip), vehicle: saline with Tween-80
[7] = dose: 400.0 mg/kg/injection, schedule: Q04DX003 (ip), vehicle: saline with Tween-80
[8] = dose: 100.0 mg/kg/injection, schedule: Q04DX003 (ip), vehicle: saline
[9] = dose: 200.0 mg/kg/injection, schedule: Q04DX003 (ip), vehicle: saline
[10] = dose: 100.0 mg/kg/injection, schedule: Q04DX002 (ip), vehicle: Klucel (hydroxypropylcellulose) (HPC)
[11] = dose: 100.0 mg/kg/injection, schedule: Q01DX009 (ip), vehicle: Klucel (hydroxypropylcellulose) (HPC)
[12] = dose: 100.0 mg/kg/injection, schedule: Q04DX003 (ip), vehicle: Klucel (hydroxypropylcellulose) (HPC)
[13] = dose: 200.0 mg/kg/injection, schedule: Q01DX009 (ip), vehicle: Klucel (hydroxypropylcellulose) (HPC)
[14] = dose: 200.0 mg/kg/injection, schedule: Q04DX003 (ip), vehicle: Klucel (hydroxypropylcellulose) (HPC)
[15] = dose: 400.0 mg/kg/injection, schedule: Q01DX009 (ip), vehicle: Klucel (hydroxypropylcellulose) (HPC)
[16] = dose: 400.0 mg/kg/injection, schedule: Q04DX003 (ip), vehicle: Klucel (hydroxypropylcellulose) (HPC)
[17] = dose: 100.0 mg/kg/injection, schedule: Q01DX001 (ip), vehicle: carboxymethylcellulose (CMC)
[18] = dose: 200.0 mg/kg/injection, schedule: Q01DX001 (ip), vehicle: carboxymethylcellulose (CMC)
[19] = dose: 400.0 mg/kg/injection, schedule: Q01DX001 (ip), vehicle: carboxymethylcellulose (CMC)

Measured: T/C

CCNC(=S)Nc1ccc(OCC)cc1
inactive: [1] 89 % of control | [2] 95 % of control | dose: 400.0 mg/kg/injection, schedule: Q04DX002 (ip), vehicle: saline with Tween-80 100 % of control

O=c1[nH]c(=S)[nH]c2nccnc12
inactive: dose: 16.0 mg/kg/injection, schedule: Q01DX Z (ip), vehicle: methylcellulose (MC) 108 % of control | dose: 31.0 mg/kg/injection, schedule: Q01DX Z (ip), vehicle: methylcellulose (MC) 103 % of control | dose: 62.0 mg/kg/injection, schedule: Q01DX Z (ip), vehicle: methylcellulose (MC) 105 % of control | dose: 125.0 mg/kg/injection, schedule: Q01DX Z (ip), vehicle: methylcellulose (MC) 97 % of control and 106 % of control | dose: 250.0 mg/kg/injection, schedule: Q01DX Z (ip), vehicle: methylcellulose (MC) 97 % of control | dose: 500.0 mg/kg/injection, schedule: Q01DX Z (ip), vehicle: methylcellulose (MC) 106 % of control

CCN=C(Nc1ccc(C(=NC)NCC)cc1)c1ccc(C(=NCC)Nc2ccc(C(=NC)NCC)cc2)cc1
inactive: dose: 0.5 mg/kg/injection, schedule: Q01DX Z (ip), vehicle: saline 97 % of control | dose: 0.8 mg/kg/injection, schedule: Q01DX Z (ip), vehicle: saline 97 % of control | dose: 1.2 mg/kg/injection, schedule: Q01DX Z (ip), vehicle: saline 97 % of control | dose: 1.77 mg/kg/injection, schedule: Q01DX Z (ip), vehicle: saline 97 % of control and 89 % of control | dose: 2.66 mg/kg/injection, schedule: Q01DX Z (ip), vehicle: saline 93 % of control | dose: 4.0 mg/kg/injection, schedule: Q01DX Z (ip), vehicle: saline 96 % of control

OCCN1CCSC1=S
inactive: [3] 87 % of control | dose: 200.0 mg/kg/injection, schedule: Q01DX009 (ip), vehicle: saline with Tween-80 88 % of control

NC(=O)c1ccccc1C(Cl)(Cl)Cl
inactive: [4] 88 % of control | [3] 89 % of control | [5] 104 % of control | [6] 96 % of control

CCC(CN)(c1cccs1)c1cccs1
inactive: dose: 100.0 mg/kg/injection, schedule: Q01DX001 (ip), vehicle: Klucel (hydroxypropylcellulose) (HPC) 87 % of control | dose: 200.0 mg/kg/injection, schedule: Q01DX001 (ip), vehicle: Klucel (hydroxypropylcellulose) (HPC) 97 % of control | dose: 400.0 mg/kg/injection, schedule: Q01DX001 (ip), vehicle: Klucel (hydroxypropylcellulose) (HPC) 103 % of control

C1CCC(SSC2CCCC2)C1
inactive: [5] 89 % of control | [6] 92 % of control | [7] 92 % of control

O=C(O)c1ccccc1OCc1cc(=O)[nH]c(=O)[nH]1
inactive: [8] 95 % of control | [9] 95 % of control | dose: 400.0 mg/kg/injection, schedule: Q04DX003 (ip), vehicle: saline 98 % of control

O=C(O)Cc1n[nH]c(=O)c2ccccc12
inactive: [10] 93 % of control | dose: 200.0 mg/kg/injection, schedule: Q04DX002 (ip), vehicle: Klucel (hydroxypropylcellulose) (HPC) 99 % of control | dose: 400.0 mg/kg/injection, schedule: Q04DX002 (ip), vehicle: Klucel (hydroxypropylcellulose) (HPC) 102 % of control

COC(=O)CC(=O)c1ccc(C)cc1
inactive: [11] 101 % of control | [12] 108 % of control | [13] 95 % of control | [14] 111 % of control | [15] 104 % of control | [16] 95 % of control

CC(=O)Nc1nc(C)c(CCC(C)C)c(Cl)n1
inactive: dose: 25.0 mg/kg/injection, schedule: Q04DX002 (ip), vehicle: Klucel (hydroxypropylcellulose) (HPC) 104 % of control | dose: 50.0 mg/kg/injection, schedule: Q04DX002 (ip), vehicle: Klucel (hydroxypropylcellulose) (HPC) 93 % of control | [10] 105 % of control

COC1(c2ccccc2)OC12CC1CCC2C1 (configuration not stated)
inactive: dose: 50.0 mg/kg/injection, schedule: Q04DX003 (ip), vehicle: saline 98 % of control | dose: 100.0 mg/kg/injection, schedule: Q01DX001 (ip), vehicle: saline 95 % of control | [8] 100 % of control | dose: 200.0 mg/kg/injection, schedule: Q01DX001 (ip), vehicle: saline 101 % of control | [9] 100 % of control | dose: 400.0 mg/kg/injection, schedule: Q01DX001 (ip), vehicle: saline 95 % of control

CC(=O)NC1CCC(/C=C(\C#N)C2CCC(C)CC2)CC1 (configuration not stated)
inactive: [1] 87 % of control | [2] 93 % of control

Cc1c(Cl)cccc1CC(Cl)C#N (configuration not stated)
inactive: dose: 12.5 mg/kg/injection, schedule: Q01DX009 (ip), vehicle: saline with Tween-80 97 % of control | dose: 25.0 mg/kg/injection, schedule: Q01DX009 (ip), vehicle: saline with Tween-80 90 % of control | [4] 87 % of control | [3] 89 % of control

O=C(O)c1c(Cl)nsc1Cl
inactive: [11] 98 % of control | [13] 98 % of control

N=C(N)SC1c2cc(Cl)ccc2-c2c(Cl)cc(Cl)cc21 (configuration not stated)
inactive: [17] 94 % of control | [18] 92 % of control

CC(C)(CO)N=Cc1ccc(O)cc1O
inactive: [17] 96 % of control | [18] 93 % of control | [19] 91 % of control

COC(=O)CNC(=O)C(C)NC(=O)OCc1ccccc1 (configuration not stated)
inactive: [5] 102 % of control | [6] 98 % of control | [7] 100 % of control

CCCC#C/C=C1/C=CC(=O)O1
inactive: dose: 75.0 mg/kg/injection, schedule: Q01DX001 (ip), vehicle: carboxymethylcellulose (CMC) 94 % of control | dose: 150.0 mg/kg/injection, schedule: Q01DX001 (ip), vehicle: carboxymethylcellulose (CMC) 97 % of control

Cc1cccc(N=C/C=C/c2ccccc2)c1C
inactive: [11] 94 % of control | [13] 100 % of control | [15] 108 % of control

C=CCSc1ccccc1C(=O)O
inactive: dose: 50.0 mg/kg/injection, schedule: Q01DX001 (ip), vehicle: carboxymethylcellulose (CMC) 122 % of control | [17] 95 % of control | [18] 106 % of control | [19] 106 % of control

Cc1ccc(S(=O)(=O)N/N=C2\CCCC3CC23C)cc1 (configuration not stated)
inactive: dose: 75.0 mg/kg/injection, schedule: Q04DX002 (ip), vehicle: Klucel (hydroxypropylcellulose) (HPC) 93 % of control | dose: 150.0 mg/kg/injection, schedule: Q04DX002 (ip), vehicle: Klucel (hydroxypropylcellulose) (HPC) 93 % of control | dose: 300.0 mg/kg/injection, schedule: Q04DX002 (ip), vehicle: Klucel (hydroxypropylcellulose) (HPC) 104 % of control

Cc1cc(C)c2c(c1)CCc1cc(C)cc(C)c1-2
inactive: [11] 100 % of control | [12] 93 % of control | [13] 93 % of control | [14] 93 % of control | [15] 100 % of control | [16] 93 % of control
